Measured values taken from patent US20110136162A1, “Compositions and Methods for Functionalized Patterning of Tissue Engineering Substrates Including Bioprinting Cell-Laden Constructs for Multicompartment Tissue Chambers” (Drexel University, priority 2009, published 2011).

Tested on: Human hepatocytes (HepG2) and human melanoma cells (M10)
Assay: Micronuclei in binucleated cells after γ-radiation, cells treated with amifostine
Type: cell-based
Conditions: binucleated cells after 60 hours
Description: Human hepatocytes (HepG2) and human melanoma cells (M10) were cultured in α-Minimum Essential Medium (Gibco) at 37° C. in 5% CO2. Cells were mixed with BME (i.e., Basement Membrane Matrix Phenol Red-free (BD Biosciences Matrigel)) chilled to 4° C. and printed onto a glass microfluidic chip having a PDMS substrate (see FIGS. 13 and 14) using a temperature-controlled BME printing apparatus 0-5° C. (see, for example, FIGS. 9 and 10).
After the 4 hour treatment with amifostine, the cells were exposed to 2 Grays of γ-radiation from a cesium source. […] Then, the cells were incubated and allowed to divide for 60 hours and examined for evidence of radiation damage.
Binucleated cells were examined for the presence of micronuclei as evidence of radiation damage.

NCCCNCCSP(=O)(O)O [amifostine]
radiation-treated cells found to have micronuclei (microfluidic chip, 1 mM amifostine perfusion 4 hours before and 90 minutes after 2 Grays γ-radiation): about 3% | radiation-treated cells found to have micronuclei (tissue culture plate, 1 mM amifostine 4 hours before and 90 minutes after 2 Grays γ-radiation): about 4%
